Measurements published in ChEMBL document CHEMBL3856204, “Chiral 6-aryl-furo[2,3-d]pyrimidin-4-amines as EGFR inhibitors” (Eur J Med Chem, 2016).

Key:
[1] = biological target: Aurora kinase B (Homo sapiens) (UniProt Q96GD4); assay: Inhibition of His tagged recombinant full length human Aurora B expressed in baculovirus at 500 nM by Z'-LYTE assay
[2] = biological target: T1, Ephrin type-B receptor 1 (Homo sapiens) (UniProt P54762); assay: Inhibition of GST tagged recombinant human EPHB1 cytoplasmic domain (613 to 881 residues) expressed in baculovirus at 500 nM by Z'-LYTE assay
T1 sequence (whole entry): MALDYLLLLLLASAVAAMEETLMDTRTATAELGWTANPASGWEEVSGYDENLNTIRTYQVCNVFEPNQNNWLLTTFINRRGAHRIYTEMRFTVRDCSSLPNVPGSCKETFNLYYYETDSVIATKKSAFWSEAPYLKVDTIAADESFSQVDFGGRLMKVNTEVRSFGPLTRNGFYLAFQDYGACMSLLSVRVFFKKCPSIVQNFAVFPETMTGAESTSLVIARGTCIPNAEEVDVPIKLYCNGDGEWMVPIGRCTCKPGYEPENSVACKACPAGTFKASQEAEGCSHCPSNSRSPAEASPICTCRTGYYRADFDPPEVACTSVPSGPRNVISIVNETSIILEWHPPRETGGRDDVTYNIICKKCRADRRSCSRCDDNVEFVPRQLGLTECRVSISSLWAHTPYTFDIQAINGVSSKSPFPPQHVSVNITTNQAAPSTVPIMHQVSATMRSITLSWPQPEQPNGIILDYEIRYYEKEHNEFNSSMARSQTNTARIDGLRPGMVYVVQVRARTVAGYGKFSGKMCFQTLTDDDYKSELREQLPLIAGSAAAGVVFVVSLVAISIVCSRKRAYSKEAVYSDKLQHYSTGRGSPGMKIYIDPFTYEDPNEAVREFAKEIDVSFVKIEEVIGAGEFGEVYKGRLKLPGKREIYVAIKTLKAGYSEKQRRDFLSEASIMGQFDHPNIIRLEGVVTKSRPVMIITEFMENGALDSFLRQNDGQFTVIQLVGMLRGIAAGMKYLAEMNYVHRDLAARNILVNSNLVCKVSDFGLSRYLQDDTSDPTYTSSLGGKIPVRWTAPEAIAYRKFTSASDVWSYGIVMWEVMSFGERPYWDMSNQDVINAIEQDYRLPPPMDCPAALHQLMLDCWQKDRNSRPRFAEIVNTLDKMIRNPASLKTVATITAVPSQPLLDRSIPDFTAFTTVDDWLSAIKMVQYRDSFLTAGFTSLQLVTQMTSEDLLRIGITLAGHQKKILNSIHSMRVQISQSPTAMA

[3] = biological target: Fibroblast growth factor receptor 1 (Homo sapiens) (UniProt P11362); assay: Inhibition of His tagged recombinant human FGFR1 cytoplasmic domain (308 to 731 residues) expressed in baculovirus at 500 nM by Z'-LYTE assay
[4] = biological target: Tyrosine-protein kinase HCK (Homo sapiens) (UniProt P08631); assay: Inhibition of recombinant full length human N-terminal GST-tagged HCK expressed in baculovirus at 500 nM by Z'-LYTE assay
Chain of Tyrosine-protein kinase HCK (Homo sapiens) (P08631 2-526 limits assumed): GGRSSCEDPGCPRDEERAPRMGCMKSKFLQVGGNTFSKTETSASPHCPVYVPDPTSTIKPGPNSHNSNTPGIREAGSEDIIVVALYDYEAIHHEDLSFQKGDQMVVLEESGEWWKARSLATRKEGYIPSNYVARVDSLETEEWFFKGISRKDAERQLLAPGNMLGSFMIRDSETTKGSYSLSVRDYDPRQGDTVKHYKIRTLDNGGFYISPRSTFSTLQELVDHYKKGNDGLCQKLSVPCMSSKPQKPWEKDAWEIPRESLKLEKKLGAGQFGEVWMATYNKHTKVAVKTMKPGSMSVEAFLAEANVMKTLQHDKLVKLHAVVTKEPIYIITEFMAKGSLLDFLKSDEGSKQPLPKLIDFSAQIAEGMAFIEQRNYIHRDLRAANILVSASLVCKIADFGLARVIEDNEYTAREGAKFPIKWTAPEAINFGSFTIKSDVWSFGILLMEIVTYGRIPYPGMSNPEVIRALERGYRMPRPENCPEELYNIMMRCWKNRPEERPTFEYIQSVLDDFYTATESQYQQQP

[5] = biological target: T2, Inhibitor of nuclear factor kappa-B kinase subunit beta (Homo sapiens) (UniProt O14920); assay: Inhibition of GST tagged recombinant full length human IKK beta expressed in baculovirus at 500 nM by Z'-LYTE assay
T2 sequence (whole entry): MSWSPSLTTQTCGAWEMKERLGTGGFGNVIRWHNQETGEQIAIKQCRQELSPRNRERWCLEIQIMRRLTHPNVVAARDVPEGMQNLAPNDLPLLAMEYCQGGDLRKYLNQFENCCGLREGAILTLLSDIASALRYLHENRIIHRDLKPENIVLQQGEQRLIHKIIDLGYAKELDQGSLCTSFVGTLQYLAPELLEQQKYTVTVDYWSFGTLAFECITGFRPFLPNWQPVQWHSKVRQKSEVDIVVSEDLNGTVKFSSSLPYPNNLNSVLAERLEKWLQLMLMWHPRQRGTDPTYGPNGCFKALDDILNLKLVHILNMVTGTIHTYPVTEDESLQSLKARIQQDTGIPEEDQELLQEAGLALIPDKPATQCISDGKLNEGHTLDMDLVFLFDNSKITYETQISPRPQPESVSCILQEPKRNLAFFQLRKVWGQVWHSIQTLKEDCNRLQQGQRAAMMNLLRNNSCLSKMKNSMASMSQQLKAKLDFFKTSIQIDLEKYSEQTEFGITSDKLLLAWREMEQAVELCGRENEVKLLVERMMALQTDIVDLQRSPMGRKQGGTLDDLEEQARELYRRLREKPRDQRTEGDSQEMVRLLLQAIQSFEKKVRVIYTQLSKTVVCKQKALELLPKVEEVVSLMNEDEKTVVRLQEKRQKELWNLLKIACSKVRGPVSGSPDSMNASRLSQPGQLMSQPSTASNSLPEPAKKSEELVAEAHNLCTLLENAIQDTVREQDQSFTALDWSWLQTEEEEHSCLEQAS

[6] = biological target: Vascular endothelial growth factor receptor 2 (Homo sapiens) (UniProt P35968); assay: Inhibition of His tagged recombinant human KDR (789 to 1356 residues) expressed in baculovirus at 500 nM by Z'-LYTE assay
Chain of Vascular endothelial growth factor receptor 2 (Homo sapiens) (P35968 whole entry, the tested form may be a part): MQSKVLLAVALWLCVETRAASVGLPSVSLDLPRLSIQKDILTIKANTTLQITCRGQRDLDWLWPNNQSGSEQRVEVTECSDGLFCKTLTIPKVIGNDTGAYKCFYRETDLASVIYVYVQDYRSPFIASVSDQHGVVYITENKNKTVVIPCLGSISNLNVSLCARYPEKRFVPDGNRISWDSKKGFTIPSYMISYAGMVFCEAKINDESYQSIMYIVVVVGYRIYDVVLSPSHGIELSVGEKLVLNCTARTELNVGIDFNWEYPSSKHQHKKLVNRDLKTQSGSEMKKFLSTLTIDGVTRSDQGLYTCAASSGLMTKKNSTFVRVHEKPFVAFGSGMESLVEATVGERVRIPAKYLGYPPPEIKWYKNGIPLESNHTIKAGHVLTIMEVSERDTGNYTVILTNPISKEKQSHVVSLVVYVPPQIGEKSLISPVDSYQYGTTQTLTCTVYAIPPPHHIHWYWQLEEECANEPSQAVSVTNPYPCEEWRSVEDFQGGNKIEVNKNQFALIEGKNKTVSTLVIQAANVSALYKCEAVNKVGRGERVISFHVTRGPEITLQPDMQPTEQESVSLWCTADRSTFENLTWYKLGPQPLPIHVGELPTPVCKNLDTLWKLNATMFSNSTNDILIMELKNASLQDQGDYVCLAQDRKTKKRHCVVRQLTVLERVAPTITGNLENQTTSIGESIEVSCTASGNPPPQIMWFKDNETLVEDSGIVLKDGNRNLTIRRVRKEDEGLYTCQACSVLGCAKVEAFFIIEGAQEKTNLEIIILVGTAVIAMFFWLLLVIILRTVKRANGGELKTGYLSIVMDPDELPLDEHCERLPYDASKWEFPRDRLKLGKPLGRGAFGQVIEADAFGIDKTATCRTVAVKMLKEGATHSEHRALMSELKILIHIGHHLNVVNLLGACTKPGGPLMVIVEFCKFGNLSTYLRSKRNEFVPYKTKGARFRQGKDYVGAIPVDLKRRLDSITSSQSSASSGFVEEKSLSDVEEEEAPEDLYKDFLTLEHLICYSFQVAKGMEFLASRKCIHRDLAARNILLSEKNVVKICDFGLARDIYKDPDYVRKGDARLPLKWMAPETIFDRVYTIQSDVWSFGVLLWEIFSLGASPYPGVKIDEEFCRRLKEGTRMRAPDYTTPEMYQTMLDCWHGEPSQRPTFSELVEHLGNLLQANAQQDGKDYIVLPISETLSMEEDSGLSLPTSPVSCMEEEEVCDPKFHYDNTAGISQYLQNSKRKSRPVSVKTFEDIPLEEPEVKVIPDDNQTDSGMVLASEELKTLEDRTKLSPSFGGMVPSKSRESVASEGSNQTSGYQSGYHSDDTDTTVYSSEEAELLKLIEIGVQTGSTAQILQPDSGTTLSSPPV

[7] = biological target: Dual specificity mitogen-activated protein kinase kinase 1 (Homo sapiens) (UniProt Q02750); assay: Inhibition of His tagged recombinant full length human MEK1 expressed in baculovirus at 500 nM by Z'-LYTE assay
Chain of Dual specificity mitogen-activated protein kinase kinase 1 (Homo sapiens) (Q02750 whole entry): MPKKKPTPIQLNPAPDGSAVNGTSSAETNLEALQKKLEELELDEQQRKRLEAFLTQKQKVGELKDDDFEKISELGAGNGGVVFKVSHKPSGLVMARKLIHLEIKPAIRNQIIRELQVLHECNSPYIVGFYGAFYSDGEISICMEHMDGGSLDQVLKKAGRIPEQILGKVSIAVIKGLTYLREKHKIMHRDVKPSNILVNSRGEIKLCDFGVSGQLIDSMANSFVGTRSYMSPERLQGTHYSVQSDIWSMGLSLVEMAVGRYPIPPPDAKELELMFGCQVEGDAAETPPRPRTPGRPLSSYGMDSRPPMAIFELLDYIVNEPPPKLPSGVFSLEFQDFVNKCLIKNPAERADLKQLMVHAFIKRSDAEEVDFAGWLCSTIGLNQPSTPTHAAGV

[8] = biological target: MAP kinase-activated protein kinase 2 (Homo sapiens) (UniProt P49137); assay: Inhibition of His tagged recombinant full length human MAPKAPK2 expressed in Escherichia coli at 500 nM by Z'-LYTE assay
Chain of MAP kinase-activated protein kinase 2 (Homo sapiens) (P49137 whole entry, looked up, the tested form may be a part): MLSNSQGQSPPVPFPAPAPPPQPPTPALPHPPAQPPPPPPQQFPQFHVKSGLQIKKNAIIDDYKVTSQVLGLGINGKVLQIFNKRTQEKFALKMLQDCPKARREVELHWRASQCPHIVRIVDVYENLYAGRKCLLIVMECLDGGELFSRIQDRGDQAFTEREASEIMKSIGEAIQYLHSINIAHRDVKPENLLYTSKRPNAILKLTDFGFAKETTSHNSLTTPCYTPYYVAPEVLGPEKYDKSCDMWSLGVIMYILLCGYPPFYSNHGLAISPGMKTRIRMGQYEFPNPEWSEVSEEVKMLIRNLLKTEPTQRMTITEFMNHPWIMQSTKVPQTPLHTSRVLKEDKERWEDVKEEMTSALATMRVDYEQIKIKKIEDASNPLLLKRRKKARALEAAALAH

[9] = biological target: Platelet-derived growth factor receptor beta (Homo sapiens) (UniProt P09619); assay: Inhibition of His tagged recombinant human PDGFRB cytoplasmic domain (558 to 1106 residues) expressed in baculovirus at 500 nM by Z'-LYTE assay
Chain of Platelet-derived growth factor receptor beta (Homo sapiens) (P09619 whole entry, the tested form may be a part): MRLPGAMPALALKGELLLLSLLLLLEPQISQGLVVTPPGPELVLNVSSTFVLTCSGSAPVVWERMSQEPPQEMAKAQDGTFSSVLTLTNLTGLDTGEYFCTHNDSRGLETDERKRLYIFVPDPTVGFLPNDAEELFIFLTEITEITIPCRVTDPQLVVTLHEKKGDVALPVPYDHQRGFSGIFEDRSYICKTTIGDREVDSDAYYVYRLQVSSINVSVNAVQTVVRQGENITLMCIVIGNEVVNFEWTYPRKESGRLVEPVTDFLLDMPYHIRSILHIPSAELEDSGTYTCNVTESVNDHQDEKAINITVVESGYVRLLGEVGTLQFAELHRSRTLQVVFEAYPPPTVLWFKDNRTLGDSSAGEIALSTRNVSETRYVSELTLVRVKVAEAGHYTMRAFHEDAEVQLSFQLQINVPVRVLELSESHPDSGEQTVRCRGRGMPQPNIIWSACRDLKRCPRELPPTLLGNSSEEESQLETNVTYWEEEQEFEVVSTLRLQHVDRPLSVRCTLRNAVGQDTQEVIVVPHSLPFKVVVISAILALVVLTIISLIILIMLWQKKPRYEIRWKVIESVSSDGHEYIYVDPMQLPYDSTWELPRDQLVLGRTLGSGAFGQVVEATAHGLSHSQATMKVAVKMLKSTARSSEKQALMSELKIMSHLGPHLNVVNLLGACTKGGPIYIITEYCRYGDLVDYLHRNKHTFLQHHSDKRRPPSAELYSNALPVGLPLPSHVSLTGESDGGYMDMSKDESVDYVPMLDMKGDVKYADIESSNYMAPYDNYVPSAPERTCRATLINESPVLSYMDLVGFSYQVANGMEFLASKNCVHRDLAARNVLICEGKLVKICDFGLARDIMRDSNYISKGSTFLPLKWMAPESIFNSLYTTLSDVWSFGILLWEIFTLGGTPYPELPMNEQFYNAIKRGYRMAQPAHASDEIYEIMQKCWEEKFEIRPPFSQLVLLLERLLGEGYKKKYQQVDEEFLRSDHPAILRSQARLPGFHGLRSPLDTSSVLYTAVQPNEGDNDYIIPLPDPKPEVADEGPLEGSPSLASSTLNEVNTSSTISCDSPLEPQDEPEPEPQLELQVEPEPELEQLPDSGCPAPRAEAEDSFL

[10] = biological target: cAMP-dependent protein kinase catalytic subunit alpha (Homo sapiens) (UniProt P17612); assay: Inhibition of His tagged recombinant human PRKACA catalytic domain (1 to 351 residues) expressed in Escherichia coli at 500 nM by Z'-LYTE assay
[11] = biological target: Protein kinase C theta type (Homo sapiens) (UniProt Q04759); assay: Inhibition of His tagged recombinant full length human PRKCQ expressed in baculovirus at 500 nM by Z'-LYTE assay
[12] = biological target: Focal adhesion kinase 1 (Homo sapiens) (UniProt Q05397); assay: Inhibition of GST tagged recombinant full length human PTK2 expressed in baculovirus at 500 nM by Z'-LYTE assay
Chain of Focal adhesion kinase 1 (Homo sapiens) (Q05397 2-1052 limits assumed): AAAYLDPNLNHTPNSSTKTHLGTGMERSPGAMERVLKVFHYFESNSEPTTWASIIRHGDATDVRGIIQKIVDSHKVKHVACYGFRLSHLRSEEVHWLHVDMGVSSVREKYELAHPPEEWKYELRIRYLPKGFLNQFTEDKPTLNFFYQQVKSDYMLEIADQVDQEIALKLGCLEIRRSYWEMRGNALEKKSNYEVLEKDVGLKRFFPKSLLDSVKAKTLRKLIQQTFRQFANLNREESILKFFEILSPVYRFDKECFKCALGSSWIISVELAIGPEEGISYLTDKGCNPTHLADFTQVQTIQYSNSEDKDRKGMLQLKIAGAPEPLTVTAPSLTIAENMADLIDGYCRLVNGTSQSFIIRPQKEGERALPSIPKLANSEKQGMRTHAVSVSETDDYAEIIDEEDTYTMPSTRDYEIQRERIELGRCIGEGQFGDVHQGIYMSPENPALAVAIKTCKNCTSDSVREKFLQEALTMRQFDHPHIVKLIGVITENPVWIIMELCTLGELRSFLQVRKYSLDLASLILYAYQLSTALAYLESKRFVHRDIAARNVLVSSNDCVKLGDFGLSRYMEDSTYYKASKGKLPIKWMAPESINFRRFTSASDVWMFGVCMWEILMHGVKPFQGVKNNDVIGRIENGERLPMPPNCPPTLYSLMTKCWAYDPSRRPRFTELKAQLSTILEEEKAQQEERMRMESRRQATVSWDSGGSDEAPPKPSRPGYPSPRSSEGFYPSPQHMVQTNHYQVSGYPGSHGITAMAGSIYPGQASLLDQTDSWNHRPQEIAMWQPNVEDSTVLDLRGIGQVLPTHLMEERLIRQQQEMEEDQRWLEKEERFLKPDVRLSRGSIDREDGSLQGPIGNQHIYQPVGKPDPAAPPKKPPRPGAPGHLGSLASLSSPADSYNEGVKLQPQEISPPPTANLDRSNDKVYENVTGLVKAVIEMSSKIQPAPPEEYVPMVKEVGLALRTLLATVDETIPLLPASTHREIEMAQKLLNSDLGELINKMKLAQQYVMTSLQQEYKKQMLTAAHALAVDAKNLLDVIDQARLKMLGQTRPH

[13] = biological target: Tyrosine-protein kinase SYK (Homo sapiens) (UniProt P43405); assay: Inhibition of recombinant full length human N-terminal GST-tagged SYK expressed in baculovirus at 500 nM by Z'-LYTE assay

inhibition [1] | inhibition [2] | inhibition [3] | inhibition [4] | inhibition [5] | inhibition [6] | inhibition [7] | inhibition [8] | inhibition [9] | inhibition [10] | inhibition [11] | inhibition [12] | inhibition [13] | SMILES
13 to 31% | 17% | 6% | 20% | 3% | 44% | 10% | 4% | 5% | 5% | 7% | 16% | 11% | C[C@@H](Nc1ncnc2oc(-c3ccc(NCCN4CCCCC4)cc3)cc12)c1ccccc1
7 to 34% | 17% | 6% | 21% | 2% | 37% | 10% | 3% | 10% | 8% | 10% | 7% | 8% | C[C@@H](Nc1ncnc2oc(-c3ccc(NCCN(C)C)cc3)cc12)c1ccccc1
20 to 44% | 11% | -4% | 18% | -5% | 70% | 7% | -1% | -5% | -10% | -4% | -3% | 14% | C#Cc1cccc(Nc2ncnc3cc(OCCOC)c(OCCOC)cc23)c1
